# Assay results from patent US10045990B2, “ERBB4 inhibitors and methods of use thereof” (Arizona Board of Regents on behalf of Arizona State …, priority 2015, dated 2018).
# Read-outs that look alike come from different tables or passages of the source.
# Legend:
# 1321N1 = experiment: cell growth / viable cell count in ERBB4-overexpressing, BTK-negative cell line; format: cell-based, human
# H522 = experiment: as above; format: cell-based, human
# BCRABL = experiment: NAPPA array kinase autophosphorylation assay; format: biochemical, human; settings: DMSO = 100
# HEC59 = experiment: cell growth / viable cell count in ERBB4-overexpressing, BTK-negative cell line; format: cell-based, human; design: % Survival: dose or concentration left out as unconfirmed
# KLE = experiment: as above; format: cell-based, human; design: % Survival: dose or concentration left out as unconfirmed
# H146 = experiment: as above; format: cell-based, human
# COV434 = settings: 1 uM, 7 days, Trypan blue exclusion, vs DMSO
# YES1 = molecular target: T1, YES1 (Homo sapiens, UniProt P07947); experiment: NAPPA array kinase autophosphorylation assay; format: biochemical; settings: DMSO = 100
# T1 construct: made in house; host or cells: human cell-free coupled transcription-translation (1-Step Human Coupled IVT), on the slide
# BTK [1] = molecular target: T2, BTK (Homo sapiens, UniProt Q06187); settings: 1 uM, radioactive ATP (FIG. 3A)
# Protocol: (§1) First, radioactive kinase assays were performed with purified protein kinases incubated with radioactive ATP and increasing concentrations of kinase inhibitors. The kinase activity was measured through the levels of radioactive phosphorylation present in each kinase.
# H661 = experiment: cell growth / viable cell count in ERBB4-overexpressing, BTK-negative cell line; format: cell-based, human
# OVSAHO = settings: 1 uM, 7 days, Trypan blue exclusion, vs DMSO
# ERBB4 = ERBB4 (Homo sapiens, UniProt Q15303); experiment: radioactive kinase assay with purified kinase; format: biochemical; settings: 1 uM, radioactive ATP (FIG. 3A)
# Protocol: as §1
# responsive cell lines = experiment: cell based assays, responsive cell lines; design: species or system human
# Abl1 = Abl1 (Homo sapiens, UniProt P00519); settings: DMSO = 100
# Protocol: (§2) Protein microarrays were generated using NAPPA (Nucleic acid programmable protein array) methodology, which permits the use of freshly expressed proteins for functional assays (FIG. 1). In NAPPA, cDNAs coding for the target of interest are cloned into an expression vector, which generates a fusion (Halo Tag, GST, etc.) to the target, and spotted onto a glass slide. Then to each spot, a HeLa cell in vitro transcription-translation reagent is added, whereby the fusion gene is transcribed into mRNA and translated. The nascent proteins are captured to the slide with antibody to the fusion partner (i.e., HaloTag-ligand, α-GST antibody) that is spotted adjacent to the DNA during the manufacture of the array. This method allows for up to thousands of protein targets to be arrayed. NAPPA microarrays can be expressed using an in vitro transcription and translation system (IVTT), and the anti-tag antibody captures newly synthesized proteins. Following expression, the microarrays were treated with phosphatase to remove any phosphorylation that occurred during the expression of the proteins.
# (§3) De-phosphorylated arrays were then incubated with kinase buffer containing various concentrations of ATP and/or kinase inhibitors. The kinase activity was measured as end point assay using anti-phopho tyrosine antibody linked to cy3 as the detecting agent (FIG. 2). The data was normalized using positive control features present in each array.
# (§4) NAPPA kinase microarrays we generated with virtually all protein-tyrosine kinases from the human genome. The coding sequence for each tyrosine kinase was clone into an expression plasmid and immobilized on the microarray surface, with one protein kinase per feature. After the microarray was expressed, any phosphorylation that occurred during the expression step was removed by a treatment with lambda phosphatase.
# (§5) Unphosphorylated microarrays were then incubated with a kinase buffer (25 mM Tris-HCl (pH 7.5), 5 mM beta-glycerophosphate, 2 mM dithiothreitol (DTT), 0.1 mM Na3VO4, 10 mM MgCl2) supplemented with […] and/or kinase inhibitors (concentration ranging from 0-10 uM). The kinase autophosphorylation activity was measured through the levels of phosphorylation present in each feature and was detected by phospho-tyrosine antibody. […] Staurosporine is a pan kinase inhibitor used as a control.
# (§6) NAPPA arrays suitable for measuring the activity of protein kinases and evaluating the selectivity of kinase inhibitors were produced using a variation of the published protocol (Proteomics Clin Appl. 2013 June; 7(5-6):372-7.). Briefly, NAPPA printing mix was prepared with plasmid DNA coding for genes of interest, anti-flag antibody, cross-linker and poly-lysine. […]
# BTK [2] = molecular target: T2, BTK; settings: DMSO = 100
# Protocol: as §2, §3, §4, §5, §6
# H716 = experiment: cell growth / viable cell count in ERBB4-overexpressing, BTK-negative cell line; format: cell-based, human
# [3] = 0, 1 nM, 10 nM, 100 nM, 1 uM or 10 uM for 7 days
# [4] = 1 uM, 7 days, Trypan blue exclusion, vs DMSO
# [5] = percentage of viable cells after a 24-hour treatment of 1 nM ibrutinib
# T2 sequence (Q06187 whole entry): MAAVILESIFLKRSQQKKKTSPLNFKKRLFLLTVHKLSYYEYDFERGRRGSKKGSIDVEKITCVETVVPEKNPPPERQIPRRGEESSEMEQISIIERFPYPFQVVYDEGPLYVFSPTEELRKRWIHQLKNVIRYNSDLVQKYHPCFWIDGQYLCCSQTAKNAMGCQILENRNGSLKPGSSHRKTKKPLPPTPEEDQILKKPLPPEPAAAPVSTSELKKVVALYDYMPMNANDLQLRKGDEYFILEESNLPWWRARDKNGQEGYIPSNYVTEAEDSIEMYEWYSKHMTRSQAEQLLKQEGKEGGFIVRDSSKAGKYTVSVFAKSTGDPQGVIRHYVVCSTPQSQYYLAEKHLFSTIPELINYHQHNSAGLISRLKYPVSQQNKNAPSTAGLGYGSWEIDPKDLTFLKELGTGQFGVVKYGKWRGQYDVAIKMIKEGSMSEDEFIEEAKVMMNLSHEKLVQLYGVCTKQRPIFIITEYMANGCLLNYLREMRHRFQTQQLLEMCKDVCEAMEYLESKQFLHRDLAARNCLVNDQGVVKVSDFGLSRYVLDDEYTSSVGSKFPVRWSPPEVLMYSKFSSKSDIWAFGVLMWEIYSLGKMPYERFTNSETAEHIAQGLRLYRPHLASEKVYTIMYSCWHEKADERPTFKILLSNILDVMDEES
# Sequence of BCRABL (P00519 229-512 limits assumed): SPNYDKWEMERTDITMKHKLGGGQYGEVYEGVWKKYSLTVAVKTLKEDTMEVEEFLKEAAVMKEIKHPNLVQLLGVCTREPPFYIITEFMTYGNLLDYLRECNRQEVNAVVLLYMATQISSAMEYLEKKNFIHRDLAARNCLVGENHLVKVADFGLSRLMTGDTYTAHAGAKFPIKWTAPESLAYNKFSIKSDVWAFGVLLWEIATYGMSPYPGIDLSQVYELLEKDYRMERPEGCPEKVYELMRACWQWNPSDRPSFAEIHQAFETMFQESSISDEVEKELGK
# T1 sequence (P07947 whole entry): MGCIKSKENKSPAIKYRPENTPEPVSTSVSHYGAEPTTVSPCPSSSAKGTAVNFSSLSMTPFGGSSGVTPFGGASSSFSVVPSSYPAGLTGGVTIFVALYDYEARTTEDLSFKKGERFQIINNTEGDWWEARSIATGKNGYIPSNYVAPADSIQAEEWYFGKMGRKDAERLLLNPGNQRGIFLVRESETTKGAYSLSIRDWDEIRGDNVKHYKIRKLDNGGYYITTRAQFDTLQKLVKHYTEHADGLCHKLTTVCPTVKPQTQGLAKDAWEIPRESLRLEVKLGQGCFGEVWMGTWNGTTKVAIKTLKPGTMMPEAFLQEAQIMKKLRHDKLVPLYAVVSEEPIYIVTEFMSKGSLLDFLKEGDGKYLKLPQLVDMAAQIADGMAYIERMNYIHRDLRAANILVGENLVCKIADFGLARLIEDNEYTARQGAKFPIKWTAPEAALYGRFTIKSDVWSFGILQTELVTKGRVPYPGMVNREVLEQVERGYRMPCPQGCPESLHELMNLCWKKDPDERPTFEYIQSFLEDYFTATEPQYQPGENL
# Sequence of Abl1 (P00519 whole entry, the tested form may be a part): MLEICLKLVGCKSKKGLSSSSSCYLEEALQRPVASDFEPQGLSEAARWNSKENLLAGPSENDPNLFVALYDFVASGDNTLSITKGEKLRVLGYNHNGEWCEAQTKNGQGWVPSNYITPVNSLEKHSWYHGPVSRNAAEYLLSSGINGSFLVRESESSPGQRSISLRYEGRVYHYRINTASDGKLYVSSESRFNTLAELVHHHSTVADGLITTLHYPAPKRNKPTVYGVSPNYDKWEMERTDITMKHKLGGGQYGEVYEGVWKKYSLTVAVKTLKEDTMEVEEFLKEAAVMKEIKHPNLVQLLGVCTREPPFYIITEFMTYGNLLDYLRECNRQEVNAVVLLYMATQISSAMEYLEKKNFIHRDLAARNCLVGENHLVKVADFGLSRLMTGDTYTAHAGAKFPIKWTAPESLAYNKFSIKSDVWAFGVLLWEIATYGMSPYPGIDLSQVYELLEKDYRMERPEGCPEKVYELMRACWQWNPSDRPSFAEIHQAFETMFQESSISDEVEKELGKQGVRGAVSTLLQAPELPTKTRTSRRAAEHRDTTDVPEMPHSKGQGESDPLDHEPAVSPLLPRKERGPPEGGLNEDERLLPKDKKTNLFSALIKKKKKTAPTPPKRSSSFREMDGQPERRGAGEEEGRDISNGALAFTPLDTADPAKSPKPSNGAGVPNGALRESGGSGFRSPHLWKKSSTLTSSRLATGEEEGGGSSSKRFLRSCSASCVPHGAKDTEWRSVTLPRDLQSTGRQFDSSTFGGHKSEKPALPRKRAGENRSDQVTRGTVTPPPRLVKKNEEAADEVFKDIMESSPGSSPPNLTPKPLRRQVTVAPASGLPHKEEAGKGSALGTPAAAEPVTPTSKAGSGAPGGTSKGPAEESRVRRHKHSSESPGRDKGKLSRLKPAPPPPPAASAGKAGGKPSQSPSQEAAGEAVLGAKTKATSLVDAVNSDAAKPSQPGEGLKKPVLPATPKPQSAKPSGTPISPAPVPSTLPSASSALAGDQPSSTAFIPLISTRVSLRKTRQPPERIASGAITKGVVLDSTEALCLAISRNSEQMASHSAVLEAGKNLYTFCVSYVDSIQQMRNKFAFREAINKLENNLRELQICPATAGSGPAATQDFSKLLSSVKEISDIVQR
# Sequence of ERBB4 (Q15303 26-1308): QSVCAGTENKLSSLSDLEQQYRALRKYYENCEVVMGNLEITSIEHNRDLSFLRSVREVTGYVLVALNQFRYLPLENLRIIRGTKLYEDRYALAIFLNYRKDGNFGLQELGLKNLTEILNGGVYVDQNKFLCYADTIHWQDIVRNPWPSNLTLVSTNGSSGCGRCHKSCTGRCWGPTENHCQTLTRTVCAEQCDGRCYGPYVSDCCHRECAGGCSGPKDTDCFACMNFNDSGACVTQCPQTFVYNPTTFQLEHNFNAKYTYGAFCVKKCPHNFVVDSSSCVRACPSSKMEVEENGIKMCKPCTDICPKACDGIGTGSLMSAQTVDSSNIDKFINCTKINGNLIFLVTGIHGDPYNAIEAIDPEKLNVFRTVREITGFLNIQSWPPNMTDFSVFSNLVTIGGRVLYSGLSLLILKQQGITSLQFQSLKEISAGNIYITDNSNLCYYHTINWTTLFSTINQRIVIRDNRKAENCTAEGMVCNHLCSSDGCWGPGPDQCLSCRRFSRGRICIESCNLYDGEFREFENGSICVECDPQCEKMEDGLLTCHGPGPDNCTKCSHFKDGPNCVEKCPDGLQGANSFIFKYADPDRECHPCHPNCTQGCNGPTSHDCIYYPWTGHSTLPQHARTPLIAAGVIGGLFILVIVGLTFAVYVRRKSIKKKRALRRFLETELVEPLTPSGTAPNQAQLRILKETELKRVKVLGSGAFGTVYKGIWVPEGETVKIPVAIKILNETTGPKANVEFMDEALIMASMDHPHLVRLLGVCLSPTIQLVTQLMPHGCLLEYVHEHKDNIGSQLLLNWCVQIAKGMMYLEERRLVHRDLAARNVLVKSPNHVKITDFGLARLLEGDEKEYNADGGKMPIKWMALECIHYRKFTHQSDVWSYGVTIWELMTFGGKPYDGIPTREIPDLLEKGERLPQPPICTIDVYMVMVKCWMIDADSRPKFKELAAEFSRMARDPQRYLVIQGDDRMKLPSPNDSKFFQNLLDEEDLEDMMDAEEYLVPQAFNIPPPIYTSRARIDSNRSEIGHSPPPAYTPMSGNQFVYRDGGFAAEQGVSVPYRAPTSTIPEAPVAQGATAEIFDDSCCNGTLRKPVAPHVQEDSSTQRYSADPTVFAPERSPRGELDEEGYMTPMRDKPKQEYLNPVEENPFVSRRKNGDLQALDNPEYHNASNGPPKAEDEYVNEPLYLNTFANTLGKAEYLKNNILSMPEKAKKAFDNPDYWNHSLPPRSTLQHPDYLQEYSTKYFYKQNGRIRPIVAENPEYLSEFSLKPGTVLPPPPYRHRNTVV
substance,measurement,setting,value
Ibrutinib,sensitivity of cell line,1321N1; [3],apparently resistant
same,growth inhibition rate,1321N1; [4],10%
same,% Survival,1321N1; [5],89.7%
same,sensitivity of cell line,H522; [3],very sensitive
same,growth inhibition rate,H522; [4],60%
same,% Survival,H522; [5],41.0%
same,kinase activity (%),BCRABL; 0.1 uM Ibrutinib,92.0%
same,kinase activity (%),BCRABL; 1 uM Ibrutinib,93.1%
same,growth inhibition rate,"HEC59; HEC59, 1 uM, 7 days, Trypan blue exclusion, vs DMSO",31%
same,% Survival,"HEC59; HEC59, percentage of viable cells",68.8%
same,sensitivity of cell line,"HEC59; Hec59, 0, 1 nM, 10 nM, 100 nM, 1 uM or 10 uM for 7 days",apparently resistant
same,sensitivity of cell line,KLE; [3],very sensitive
same,growth inhibition rate,KLE; [4],73%
same,% Survival,KLE; percentage of viable cells after ibrutinib,27.2%
same,growth inhibition rate,"H146; H146, 1 uM, 7 days, Trypan blue exclusion, vs DMSO",0%
same,% Survival,"H146; H146, percentage of viable cells after a 24-hour treatment of 1 nM ibrutinib",100.0%
same,sensitivity of cell line,"H146; H416, 0, 1 nM, 10 nM, 100 nM, 1 uM or 10 uM for 7 days",apparently resistant
same,growth inhibition rate,COV434,15%
same,kinase activity (%),YES1; 0.1 uM Ibrutinib,99.3%
same,kinase activity (%),YES1; 1 uM Ibrutinib,90.9%
same,activity inhibited,BTK [1],more than 80%
same,sensitivity of cell line,H661; [3],very sensitive
same,growth inhibition rate,H661; [4],72%
same,% Survival,H661; [5],28.2%
same,growth inhibition rate,OVSAHO,37%
same,activity inhibited,ERBB4,more than 80%
same,inhibition in the responsive cell lines,responsive cell lines,60-75%
same,kinase activity (%),Abl1; 0.1 uM Ibrutinib,101.5%
same,kinase activity (%),Abl1; 1 uM Ibrutinib,104.3%
same,kinase activity (%),BTK [2]; 0.1 uM Ibrutinib,38.3%
same,kinase activity (%),BTK [2]; 1 uM Ibrutinib,5.5%
same,sensitivity of cell line,H716; [3],very sensitive
same,growth inhibition rate,H716; [4],75%
same,% Survival,H716; [5],25.5%
